{"source": "patent US12714715B2", "about": "“Agent for treating myopia, preventing myopia and/or suppressing myopia progression” (SANTEN PHARMACEUTICAL CO., LTD., priority 2020, dated 2026)", "key": {"guinea pig myopia model": {"test_system": "guinea pig myopia model", "assay": "Test on suppression of myopia progression (axial length elongation and refractive error) in guinea pig myopia model", "type": "in vivo, guinea pig (Slc:Hartley)", "details": "for Difference of axial lengths / Difference of refraction: 10 μL topical to goggled right eye once daily 14 days, right eye − left eye, average n=6; for Difference of axial lengths / Difference of refraction / Suppression rate of axial length elongation / Suppression rate of refractive error: day 14; for Suppression rate of axial length elongation / Suppression rate of refractive error: vs vehicle control group", "method": "According to the following procedures, the effect of AFDX0250 on the suppression of myopia progression (the axial length elongation and the refractive error) was evaluated.\nAFDX0250 was dissolved in purified water with a buffering agent and a tonicity agent to prepare 0.5% AFDX0250 solution. 1 mol/L sodium hydroxide reagent solution or dilute hydrochloric acid was added to the solution to adjust the pH thereof to neutral. Also, a buffering agent and a tonicity agent were dissolved in purified water to prepare a neutral vehicle. 9.8 mL of the vehicle was mixed with 0.2 mL of 0.5% AFDX0250 solution and stirred to prepare 0.01% AFDX0250 solution. 3 mL, 4 mL and 4.5 mL of the vehicles were mixed with 2 mL, 1 mL and 0.5 mL of 0.01% AFDX0250 solutions, respectively, and stirred to prepare 0.004%, 0.002% and 0.001% AFDX0250 solutions.\nA test tube with a diameter of 18 mm was cut off at the level of 10 mm from the bottom, and the cut-off bottom part was glued to one side of Velcro tape (about 20 mm square) with a hole of an appropriate diameter in the center with an adhesive agent to prepare a lens (goggle). 3-week-old guinea pigs (Slc:Hartley) (n=30) were obtained, and the prepared goggle was covered to the right eye of each guinea pig with an adhesive agent to induce myopia to the guinea pigs. The left eye thereof without goggle was used as control.\nThe […] group, 0.004% AFDX0250 solution administration group, […] group (control group) (n=6 per group). In the AFDX0250 solution administration groups, 10 μL of the AFDX0250 solution in each concentration was topically administered to the right eye of each guinea pig once daily for 14 days from the day when the right eye was covered with the goggle (day 0) to day 13. In the control group, 10 μL of the vehicle was topically administered to the right eye of each guinea pig once daily for 14 days from the day when the right eye was covered with the goggle (day 0) to day 13. In the all groups, 10 μL of the vehicle was topically administered to the left eye at the same frequency of administration as that of each group daily for 14 days from day 0 to day 13. The guinea pigs were reared under a normal rearing condition.\nOn day 14 from the myopia induction, the axial lengths of right and left eyeballs were measured with an ultrasound axial length measurement device ECHOSCAN US-500 (A-scan) (NIDEK CO., LTD.), and the refractions were measured with the auto refractometer AR-1a (NIDEK CO., LTD.). The difference of axial lengths and the suppression rate of the axial length elongation as well as the difference of refraction and the suppression rate of the refractive error were calculated according to the following formulae. The calculation was performed in Microsoft Excel. Difference of axial lengths (mm)=Axial length of right eye (mm)−Axial length of left eye (mm) Suppression rate of axial length elongation (%)=(1−Difference of axial lengths in AFDX0250 solution administration group/Difference of axial lengths in control group)×100 (Formula) Difference of refraction (D)=Refraction of right eye (D)−Refraction of left eye (D) Suppression rate of refractive error (%)=(1−Difference of refraction in AFDX0250 solution administration group/Difference of refraction in control group)×100 (Formula) (Test Result)\nAFDX0250 was dissolved in purified water with a buffering agent and a tonicity agent to prepare 0.5% AFDX0250 solution. 1 mol/L sodium hydroxide reagent solution or dilute hydrochloric acid was added to the solution to adjust the pH thereof to neutral. Also, a buffering agent and a tonicity agent were dissolved in purified water to prepare a neutral vehicle. 4 mL and 4.8 mL of vehicles were mixed with 1 mL and 0.2 mL of 0.5% AFDX0250 solutions, respectively, and stirred to prepare 0.1% and 0.02% of AFDX0250 solutions. Also, 4 mL of the vehicle was mixed with 1 mL of 0.02% AFDX0250 solution and stirred to prepare 0.004% AFDX0250 solution. […]"}, "guinea pigs": {"test_system": "guinea pigs", "assay": "Evaluation of mydriatic action (pupil diameter, pupillary light reflex) after repeated topical administration to one eye", "type": "in vivo, guinea pig", "details": "for Pupil diameter before administration: before administration on day 5, average of 3 guinea pigs; for Maximum pupil diameter: longest average diameter among measurement times on day 5", "method": "An atropine solution was repeatedly topically administered to one eye of a guinea pig to evaluate the effect of the solution on mydriasis.\nAtropine sulfate hydrate and glycerin were dissolved in water for injection to prepare 0.001%, 0.0003% and 0.0001% atropine solutions without adjusting the pH.\nEach of the prepared solutions was topically administered to the left eye of guinea pigs (the left eyes of 3 guinea pigs for each solution) in a volume of 10 μL once daily for 5 days. The pupil diameter of each guinea pig was measured before the administration on day 5 as well as 1, 2 and 4 hours after the administration to observe the pupillary light reflex. The measured pupil diameters of each guinea pig at each measurement time were averaged to obtain the average value. The obtained average value was defined as the average pupil diameter. Among each average pupil diameter at each measurement time, the longest diameter was defined as the maximum pupil diameter."}, "[1]": {"details": "Comparative Example 1, 0.004% solution"}, "[2]": {"details": "Comparative Example 1, 0.004% solution, topical once daily 14 days"}, "[3]": {"details": "Comparative Example 1, 0.02% solution"}, "[4]": {"details": "Comparative Example 1, 0.02% solution, topical once daily 14 days"}, "[5]": {"details": "Comparative Example 1, 0.1% solution"}, "[6]": {"details": "Comparative Example 1, 0.1% solution, topical once daily 14 days"}, "[7]": {"details": "Comparative Example 1, 0.5% solution"}, "[8]": {"details": "Comparative Example 1, 0.5% solution, topical once daily 14 days"}, "[9]": {"details": "Comparative Example 2, 0.004% solution"}, "[10]": {"details": "Comparative Example 2, 0.004% solution, topical once daily 14 days"}, "[11]": {"details": "Comparative Example 2, 0.01% solution"}, "[12]": {"details": "Comparative Example 2, 0.01% solution, topical once daily 14 days"}, "[13]": {"details": "Comparative Example 2, 0.02% solution"}, "[14]": {"details": "Comparative Example 2, 0.02% solution, topical once daily 14 days"}, "[15]": {"details": "Comparative Example 2, 0.1% solution"}, "[16]": {"details": "Comparative Example 2, 0.1% solution, topical once daily 14 days"}, "[17]": {"details": "Comparative Example 3, 0.0001% solution, 10 μL topical to left eye once daily 5 days"}, "[18]": {"details": "Comparative Example 3, 0.0003% solution, 10 μL topical to left eye once daily 5 days"}, "[19]": {"details": "Comparative Example 3, 0.0003% solution, 10 μL topical to left eye once daily 5 days, day 5"}, "[20]": {"details": "Comparative Example 3, 0.001% solution, 10 μL topical to left eye once daily 5 days"}, "[21]": {"details": "Comparative Example 3, 0.001% solution, 10 μL topical to left eye once daily 5 days, day 5"}}, "data": [{"smiles": "CCN(CC)CC1CCCCN1CC(=O)N1c2ccccc2C(=O)Nc2cccnc21", "note": "(stereo not drawn) [AFDX0116, 11-[2-[2-[(diethylamino)methyl]-1-piperidinyl]acetyl]-5,11-dihydro-6H-pyrido[2,3-b][1,4]benzodiazepin-6-one]", "values": [{"measurement": "Difference of axial lengths", "setting": "guinea pig myopia model; [1]", "value": 0.19, "unit": "mm"}, {"measurement": "Difference of refraction", "setting": "guinea pig myopia model; [1]", "value": "−4.74", "unit": "D"}, {"measurement": "Suppression rate of axial length elongation", "setting": "guinea pig myopia model; [2]", "value": 21.14, "unit": "%"}, {"measurement": "Suppression rate of refractive error", "setting": "guinea pig myopia model; [2]", "value": 45.54, "unit": "%"}, {"measurement": "Difference of axial lengths", "setting": "guinea pig myopia model; [3]", "value": 0.09, "unit": "mm"}, {"measurement": "Difference of refraction", "setting": "guinea pig myopia model; [3]", "value": "−2.17", "unit": "D"}, {"measurement": "Suppression rate of axial length elongation", "setting": "guinea pig myopia model; [4]", "value": 62.95, "unit": "%"}, {"measurement": "Suppression rate of refractive error", "setting": "guinea pig myopia model; [4]", "value": 73.10, "unit": "%"}, {"measurement": "Difference of axial lengths", "setting": "guinea pig myopia model; [5]", "value": 0.09, "unit": "mm"}, {"measurement": "Difference of refraction", "setting": "guinea pig myopia model; [5]", "value": "−1.90", "unit": "D"}, {"measurement": "Suppression rate of axial length elongation", "setting": "guinea pig myopia model; [6]", "value": 63.86, "unit": "%"}, {"measurement": "Suppression rate of refractive error", "setting": "guinea pig myopia model; [6]", "value": 73.17, "unit": "%"}, {"measurement": "Difference of axial lengths", "setting": "guinea pig myopia model; [7]", "value": 0.03, "unit": "mm"}, {"measurement": "Difference of refraction", "setting": "guinea pig myopia model; [7]", "value": "−2.10", "unit": "D"}, {"measurement": "Suppression rate of axial length elongation", "setting": "guinea pig myopia model; [8]", "value": 87.73, "unit": "%"}, {"measurement": "Suppression rate of refractive error", "setting": "guinea pig myopia model; [8]", "value": 75.86, "unit": "%"}, {"measurement": "Difference of axial lengths", "setting": "guinea pig myopia model; [9]", "value": 0.12, "unit": "mm"}, {"measurement": "Difference of refraction", "setting": "guinea pig myopia model; [9]", "value": "−6.59", "unit": "D"}, {"measurement": "Suppression rate of axial length elongation", "setting": "guinea pig myopia model; [10]", "value": 22.52, "unit": "%"}, {"measurement": "Suppression rate of refractive error", "setting": "guinea pig myopia model; [10]", "value": 9.96, "unit": "%"}, {"measurement": "Difference of axial lengths", "setting": "guinea pig myopia model; [11]", "value": 0.12, "unit": "mm"}, {"measurement": "Difference of refraction", "setting": "guinea pig myopia model; [11]", "value": "−3.61", "unit": "D"}, {"measurement": "Suppression rate of axial length elongation", "setting": "guinea pig myopia model; [12]", "value": 21.44, "unit": "%"}, {"measurement": "Suppression rate of refractive error", "setting": "guinea pig myopia model; [12]", "value": 50.71, "unit": "%"}, {"measurement": "Difference of axial lengths", "setting": "guinea pig myopia model; [13]", "value": 0.05, "unit": "mm"}, {"measurement": "Difference of refraction", "setting": "guinea pig myopia model; [13]", "value": "−2.52", "unit": "D"}, {"measurement": "Suppression rate of axial length elongation", "setting": "guinea pig myopia model; [14]", "value": 69.73, "unit": "%"}, {"measurement": "Suppression rate of refractive error", "setting": "guinea pig myopia model; [14]", "value": 65.61, "unit": "%"}, {"measurement": "Difference of axial lengths", "setting": "guinea pig myopia model; [15]", "value": 0.05, "unit": "mm"}, {"measurement": "Difference of refraction", "setting": "guinea pig myopia model; [15]", "value": "−2.42", "unit": "D"}, {"measurement": "Suppression rate of axial length elongation", "setting": "guinea pig myopia model; [16]", "value": 68.65, "unit": "%"}, {"measurement": "Suppression rate of refractive error", "setting": "guinea pig myopia model; [16]", "value": 66.87, "unit": "%"}, {"measurement": "Concentration showing the anti-myopic effect (comparison in words)", "setting": "guinea pig myopia model; Comparative Examples 1 and 2 compared with Examples 1 and 2", "value": "higher than that of AFDX0250"}, {"measurement": "Effect on the axial length elongation and the refractive error (summary in words)", "setting": "guinea pig myopia model; summary of Examples 1 and 2 (AFDX0250) and Comparative Examples 1 and 2 (AFDX0116), topical once daily 14 days", "value": "suppressed the axial length elongation and the refractive error"}, {"measurement": "Mydriatic action (pupil diameter and pupillary light reflex, in words)", "setting": "guinea pigs; guinea pig, in vivo", "value": "increased the pupil diameter and decreased the pupillary light reflex"}, {"measurement": "Measurement time of maximum pupil diameter", "setting": "guinea pigs; guinea pig, in vivo, 5 days", "value": 2, "unit": "h"}]}, {"smiles": "CN1[C@@H]2CC[C@H]1CC(OC(=O)C(CO)c1ccccc1)C2.CN1[C@@H]2CC[C@H]1CC(OC(=O)C(CO)c1ccccc1)C2.O.O=S(=O)(O)O", "note": "(stereo partly drawn) [atropine, Atropine sulfate hydrate]", "values": [{"measurement": "Pupil diameter before administration", "setting": "guinea pigs; [17]", "value": 2.3, "unit": "mm"}, {"measurement": "Decreased pupillary light reflex", "setting": "guinea pigs; Comparative Example 3, 0.0001% solution, 10 μL topical to left eye once daily 5 days, day 5", "value": "0/3"}, {"measurement": "Maximum pupil diameter", "setting": "guinea pigs; [17]", "value": 2.8, "unit": "mm"}, {"measurement": "Pupil diameter before administration", "setting": "guinea pigs; [18]", "value": 3.0, "unit": "mm"}, {"measurement": "Decreased pupillary light reflex", "setting": "guinea pigs; [19]", "value": "1/3"}, {"measurement": "Measurement time of maximum pupil diameter", "setting": "guinea pigs; [19]", "value": 1, "unit": "h"}, {"measurement": "Maximum pupil diameter", "setting": "guinea pigs; [18]", "value": 3.8, "unit": "mm"}, {"measurement": "Mydriatic action (pupil diameter and pupillary light reflex, in words)", "setting": "guinea pigs; Comparative Example 3, 0.001% and 0.0003% atropine solution administration groups", "value": "the increased pupil diameter and the decreased pupillary light reflex were found"}, {"measurement": "Pupil diameter before administration", "setting": "guinea pigs; [20]", "value": 2.6, "unit": "mm"}, {"measurement": "Decreased pupillary light reflex", "setting": "guinea pigs; [21]", "value": "3/3"}, {"measurement": "Measurement time of maximum pupil diameter", "setting": "guinea pigs; [21]", "value": 1, "unit": "h"}, {"measurement": "Maximum pupil diameter", "setting": "guinea pigs; [20]", "value": 4.9, "unit": "mm"}]}]}
